The values below come from patent US8541460B2, “PDK-1/Akt signaling inhibitors” (The Ohio State University, priority 2003, dated 2013).

The assay has as its system PC-3 cells. Kind of assay: PC-3 cell viability analysis (MTT). The note with it: inducing apoptotic death in PC-3 cells / PC-3 cell viability; read-out: IC50 PC-3. In kind it is cell-based, human. The protocol:
Cell Culture PC-3 (p53−/−) human androgen-nonresponsive prostate cancer cells were purchased from the American […] (Manassas, Va.). Cells were cultured in RPMI 1640 medium (Gibco, Grand Island, N.Y.) supplemented with 10% fetal bovine serum (FBS; Gibco) at 37° C. in a humidified incubator containing 5% CO2.
Cell viability analysis The effect of 4-[5-(4-methylphenyl)-3-(trifluoromethyl)-1H-pyrazol-1-yl]benzenesulfonamide and its derivatives on PC-3 cell viability was assessed by using the MTT {[3-(4,5-dimethylthiazol-2-yl)-2,5-diphenyl-2H-tetrazolium bromide]} assay in six replicates. Cells were grown in 10% FBS-supplemented RPMI 1640 medium in 96-well, flat bottomed plates for 24 h, and were exposed to various concentrations of compounds 1-36 dissolved in DMSO (final concentration≦0.1%) in 1% serum-containing RPMI 1640 medium for different time intervals. Controls received DMSO vehicle at a concentration equal to that in drug-treated cells. The medium was removed, replaced by 200 μl of 0.5 mg/ml of MTT in 10% FBS-containing RPMI-1640 medium, and cells were incubated in the CO2 incubator at 37° C. for 2 h. Supernatants were removed from the wells, and the reduced MTT dye was solubilized in 200 μL/well DMSO. Absorbance at 570 nm was determined on a plate reader.

For `N=C(N)Nc1ccc(-n2nc(C(F)(F)F)cc2-c2ccc3c(ccc4ccccc43)c2)cc1` [Compound 71, 4-[5-(2-Phenanthrenyl)-3-(trifluoromethyl)-1H-pyrazol-1-yl]-phenyl-guanidine], the IC50 was 3000 nM.

Broadly, the IC50 is the concentration at which inhibition is half-maximal.
